Values of other authors in patent publication US10328118B2, “High purity oritavancin and method of producing same” (priority 2014, dated 2019).
Read-outs that look alike come from different tables or passages of the source.

“red man” syndrome (histamine-like response) during infusion (subjects; in vivo) | Molecule | teratogenicity (animal models; animal models) | “red man” syndrome (histamine-like response) during infusion (subjects; rapid infusion into subjects) | teratogenicity (animal models; in vivo)
 | CN[C@H](CC(C)C)C(=O)N[C@H]1C(=O)N[C@@H](CC(N)=O)C(=O)N[C@H]2C(=O)N[C@H]3C(=O)N[C@H](C(=O)N[C@H](C(=O)O)c4cc(O)cc(O)c4-c4cc3ccc4O)[C@H](O)c3ccc(c(Cl)c3)Oc3cc2cc(c3O[C@@H]2O[C@H](CO)[C@@H](O)[C@H](O)[C@H]2O[C@H]2C[C@](C)(N)[C@H](O)[C@H](C)O2)Oc2ccc(cc2Cl)[C@H]1O [vancomycin] | non-teratogenic | associated with the “red man” syndrome | 
not seen | teicoplanin |  |  | non-teratogenic
